{"source": "patent US20200071667A1", "about": "“COMPOSITION COMPRISING GLYCYRRHIZIN FOR INDUCING DIFFERENTIATION INTO MYELOID-DERIVED SUPPRESSOR CELL FROM MYELOID CELL” (Konkuk University Glocal Industry-Academic Collabo, priority 2018, published 2020)", "key": {"myeloid cells": {"test_system": "myeloid cells", "assay": "Differentiation of LPS-treated mouse myeloid cells treated with glycyrrhizin (in vitro), flow cytometric analysis", "assay_type": "cell-based, C57BL/6 mice", "settings": "LPS 1 ng/ml, GR 100 μg/ml, incubation 3 days", "description": "To verify the in vivo experimental results of Example <2-1>, flow cytometric analysis was used to confirm whether differentiation into CD11b+Gr1 myeloid cells or MDSCs from myeloid cells was induced when myeloid cells of mice were treated with glycyrrhizin (GR).\nSpecifically, myeloid cells were obtained by washing the femoral region of each of 8-week-old male C57BL/6 male mice without specific pathogens with a Roswell Park Memorial Institute (RPMI) 1640 medium in a sterile state using a syringe with a 27-gauge needle. Red blood cells (RBCs) of the collected bone marrow were lysed with an erythrolysis solution, and then the remaining cells were treated with 10% fetal bovine serum, 40 ng/ml of IL-6, and 40 ng/ml of granulocyte-macrophage colony stimulating factor at 37° C. Thereafter, only 1 ng/ml of LPS was treated (LPS group) or 100 μg/ml of GR was additionally treated (LPS+GR group) after LPS treatment. The control was treated with 0.1 ml of PBS. After incubation for 3 days, the same flow cytometric analysis as in Example <2-1> was performed to measure the absolute number of myeloid cells of each group, and then all the obtained data was analyzed using FlowJo software (Tree Star Inc., Ashland, Oreg., USA) to determine the ratio of MDSCs to CD11b+Gr1 myeloid cells."}, "[1]": {"test_system": "myeloid cells obtained from blood, the heart, and the lungs", "assay": "Flow cytometric analysis of MDSC ratio in myeloid cells of mice with LPS-induced sepsis (in vivo)", "design": "species or system C57BL/6 mice", "description": "Animal experiments were performed according to the National Institutes of Health (NIH) guidelines for the care and use of experimental animals. This study was conducted with the approval of the Konkuk University Animal Care and Use Committee (KU16062). 8-week-old male C57BL/6 mice without specific pathogens were used, and as needed, experimental groups were divided into three groups: a control, an LPS group, and an LPS+GR group.\n(§1) Specifically, 0.1 ml of phosphate buffered saline (PBS; Gibco, Grand Island, N.Y., USA) was injected intraperitoneally (i.p.) into mice of the control, and 12 hours after the injection, 0.1 ml of PBS was intraperitoneally injected again into each mouse. 1 μg of LPS (Escherichia coli serotype 0111:B4, Sigma-Aldrich, St. Louis, Mo., USA) dissolved in 0.1 ml of PBS was injected intraperitoneally (i.p.) into mice of the LPS group to induce sepsis, and 12 hours after sepsis induction, 0.1 ml of PBS was intraperitoneally injected into each mouse. […]\nThe myeloid cells obtained from blood, the heart, or the lungs were washed with fluorescence-activated cell sorting (FACS) buffer (PBS containing 1% bovine serum albumin and 0.01% NaN3). […]"}, "IL-6": {"test_system": "IL-6", "assay": "ELISA of IL-6 in BALF and blood of mice with LPS-induced sepsis", "assay_type": "in vivo, C57BL/6 mice", "settings": "12 hours after final injection", "description": "as §1\nSpecifically, for the analysis of bronchoalveolar lavage fluid and blood, 12 hours after the final injection into mice of each experimental group of Example 1, 1 μg/g of Zoletil®50 (a combined preparation of tiletamine and zolazepam, Virbac Laboratories, Carros, France) as an anesthetic and 0.1 U/g of heparin sodium (Green Cross Co., Yongin, Korea) were intraperitoneally injected into each mouse to minimize the effect of aches or pains on immunity. […] The levels of tumor necrosis factor (TNF)-α, IL-6, and IL-1β in BALF and blood were measured using a mouse enzyme-linked ELISA kit (R&D Systems Inc., Minneapolis, Minn., USA) according to the manufacturer's instructions. Samples collected from each group were analyzed in triplicate."}, "[2]": {"settings": "parenthesised line under cell number"}}}
{"substance": "lipopolysaccharide [LPS]", "values": [{"measurement": "CD11b + Gr1 myeloid cells (number of cells)", "setting": "myeloid cells", "result": "16,500 ± 400"}, {"measurement": "MDSCs (number of cells)", "setting": "myeloid cells", "result": "5,200 ± 300"}, {"measurement": "MDSCs/CD11b + Gr1 myeloid cells × 100 (%)", "setting": "myeloid cells", "result": "32.45 ± 2.69", "unit": "%"}, {"measurement": "Total cell count", "setting": "myeloid cells", "result": "47,300 ± 1,200"}, {"measurement": "CD11b + Gr1 myeloid cells (value in parentheses)", "setting": "myeloid cells; [2]", "result": "(34.61 ± 4.51)"}, {"measurement": "MDSCs (value in parentheses)", "setting": "myeloid cells; [2]", "result": "(11.23 ± 1.25)"}, {"measurement": "ratio of MDSCs to myeloid cells (MDSCs/myeloid cells)", "setting": "[1]; myeloid cells from blood, heart or lungs, LPS 1 μg i.p., GR 100 mg/kg i.p. twice", "result": "significantly reduced compared to the control"}, {"measurement": "blood ratio of MDSCs to CD11+GR1 myeloid cells", "setting": "[1]; preliminary study using 6 mice with LPS-induced sepsis, blood", "result": "18.4±3.13", "unit": "%"}, {"measurement": "IL-6", "setting": "IL-6; BALF", "result": "650.26 ± 11.02", "unit": "pg/µL"}, {"measurement": "IL-6", "setting": "IL-6; Blood", "result": "172.63 ± 14.22", "unit": "pg/µL"}]}
